From patent US20220289766A1 (INFLAZOME LIMITED, priority 2019, published 2022)
Structures can show the parent of a compound that is named as a salt.

Columns and labels:
[1] = target: T1, NLRP3 (Homo sapiens, UniProt Q96P20); test: THP-1 cells pyroptosis assay; format: cell-based; design: Seed THP-1 cells (25,000 cells/well) containing 1.0 μg/ml LPS in 40 μl of RPMI medium; host or cells: THP-1 cells; conditions: LPS 1 μg/ml, compound 3 hrs, nigericin 5 μM 1 hr, resazurin readout
Protocol: THP-1 cells (ATCC #TIB-202) were grown in RPMI containing L-glutamine (Gibco #11835) supplemented with 1 mM sodium pyruvate (Sigma #S8636) and penicillin (100 units/ml)/streptomycin (0.1 mg/ml) (Sigma #P4333) in 10% Fetal Bovine Serum (FBS) (Sigma #F0804). The cells were routinely passaged and grown to confluency (˜10^6 cells/ml). On the day of the experiment, THP-1 cells were harvested and resuspended into RPMI medium (without FBS). The cells were then counted and viability ([…]) checked by Trypan blue (Sigma #T8154). Appropriate dilutions were made to give a concentration of 625,000 cells/ml. To this diluted cell solution was added LPS (Sigma #L4524) to give a 1 μg/ml Final Assay Concentration (FAC). 40 μl of the final preparation was aliquoted into each well of a 96-well plate. The plate thus prepared was used for compound screening.
The following method step-by-step assay was followed for compound screening. • 1. Seed THP-1 cells (25,000 cells/well) containing 1.0 μg/ml LPS in 40 μl of RPMI medium (without FBS) in 96-well, black walled, clear bottom cell culture plates coated with poly-D-lysine (VWR #734-0317) • 2. Add 5 μl compound (8 points half-log dilution, with 10 μM top dose) or vehicle (DMSO 0.1% FAC) to the appropriate wells • 3. Incubate for 3 hrs at 37° C., 5% CO2 • 4. Add 5 μl nigericin (Sigma #N7143) (FAC 5 μM) to all wells • 5. Incubate for 1 hr at 37° C., 5% CO2 • 6. At the end of the incubation period, spin plates at 300×g for 3 mins and remove supernatant • 7. Then add 50 μl of resazurin (Sigma #R7017) (FAC 100 μM resazurin in RPMI medium without FBS) and incubate plates for a further 1-2 hrs at 37° C. and 5% CO2 • 8. Plates were read in an Envision reader at Ex 560 nm and Em 590 nm • 9. IC50 data is fitted to a non-linear regression equation (log inhibitor vs response-variable slope 4-parameters)

[2] = target: T1, NLRP3; test: Human whole blood IL-1β release assay; format: cell-based; design: Plate out 80 μl of whole blood containing 1 μg/ml of LPS in 96-well, clear bottom cell culture plate; from tissue; host or cells: human whole blood from healthy donors; conditions: LPS 1 μg/ml, compound 3 hrs, nigericin 10 μM 1 hr, IL-1β by AlphaLisa, read-out: HWB IC50
Protocol: For systemic delivery, the ability to inhibit NLRP3 when the compounds are present within the bloodstream is of great importance. For this reason, the NLRP3 inhibitory activity of a number of compounds in human whole blood was investigated in accordance with the following protocol.
Human whole blood in Li-heparin tubes was obtained from healthy donors from a volunteer donor panel. • 1. Plate out 80 μl of whole blood containing 1 μg/ml of LPS in 96-well, clear bottom cell culture plate (Corning #3585) • 2. Add 10 μl compound (8 points half-log dilution with 10 μM top dose) or vehicle (DMSO 0.1% FAC) to the appropriate wells • 3. Incubate for 3 hrs at 37° C., 5% CO2 • 4. Add 10 μl nigericin (Sigma #N7143) (10 μM FAC) to all wells • 5. Incubate for 1 hr at 37° C., 5% CO2 • 6. At the end of the incubation period, spin plates at 300×g for 5 mins to pellet cells and remove […] of supernatant and add to 96-well v-bottom plates for IL-1β analysis (note: these plates containing the supernatants can be stored at −80° C. to be analysed at a later date) • 7. IL-1β was measured according to the manufacturer protocol (Perkin Elmer-AlphaLisa IL-1 Kit AL220F-5000) • 8. IC50 data is fitted to a non-linear regression equation (log inhibitor vs response-variable slope 4-parameters)

T1 sequence (Q96P20 whole entry): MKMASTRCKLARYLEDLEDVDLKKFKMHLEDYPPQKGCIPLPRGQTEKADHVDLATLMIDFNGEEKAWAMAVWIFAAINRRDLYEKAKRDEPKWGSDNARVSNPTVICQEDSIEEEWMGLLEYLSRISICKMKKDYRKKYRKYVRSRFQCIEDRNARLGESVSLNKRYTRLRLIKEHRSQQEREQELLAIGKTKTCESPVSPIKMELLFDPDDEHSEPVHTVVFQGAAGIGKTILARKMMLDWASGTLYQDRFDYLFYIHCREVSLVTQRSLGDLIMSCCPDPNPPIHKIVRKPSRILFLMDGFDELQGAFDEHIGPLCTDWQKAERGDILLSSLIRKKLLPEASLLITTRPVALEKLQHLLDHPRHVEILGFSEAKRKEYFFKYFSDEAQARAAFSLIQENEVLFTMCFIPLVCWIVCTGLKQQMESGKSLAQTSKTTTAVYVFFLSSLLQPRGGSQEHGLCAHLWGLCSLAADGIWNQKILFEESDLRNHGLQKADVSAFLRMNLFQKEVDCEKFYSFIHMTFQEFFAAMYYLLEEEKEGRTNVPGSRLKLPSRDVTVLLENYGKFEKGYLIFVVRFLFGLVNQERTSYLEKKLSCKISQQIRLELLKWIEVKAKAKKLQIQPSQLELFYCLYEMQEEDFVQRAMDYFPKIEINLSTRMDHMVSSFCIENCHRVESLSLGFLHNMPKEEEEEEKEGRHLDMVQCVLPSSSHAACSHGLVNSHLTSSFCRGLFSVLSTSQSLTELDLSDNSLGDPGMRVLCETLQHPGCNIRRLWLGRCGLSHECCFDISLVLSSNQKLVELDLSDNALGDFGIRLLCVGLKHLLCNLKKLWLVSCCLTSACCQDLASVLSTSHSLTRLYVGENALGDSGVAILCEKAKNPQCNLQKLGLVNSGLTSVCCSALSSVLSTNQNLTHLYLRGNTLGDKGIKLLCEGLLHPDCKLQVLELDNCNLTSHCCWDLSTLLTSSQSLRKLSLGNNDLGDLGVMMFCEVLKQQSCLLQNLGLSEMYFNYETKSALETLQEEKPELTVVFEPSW

| SMILES | IC50 [1] | IC50 [2] |
| --- | --- | --- |
| O=C1Nc2c(ccc3c2CCC3)-c2ccnc(c2)OCCOCCn2ccc(n2)S(=O)(=O)N1 [Example 3, 21,24-dioxa-14λ^6-thia-11,13,18,26,30-pentaazapentacyclo-[23.3.1.1^15,18.0^2,10.0^5,9]triaconta-1(29),2(10),3,5(9),15(30),16,25,27-octaene-12,14,14-trione] | 100 to 500 nM | 100 to 500 nM |
| O=C1Nc2c(ccc3c2CCC3)-c2ccnc(c2)OCCCn2cc(F)c(n2)S(=O)(=O)N1 [Example 23, 16-fluoro-22-oxa-14λ^6-thia-11,13,18,24,28-pentaazapentacyclo-[21.3.1.1^15,18.0^2,10.0^5,9]octacosa-1(26),2,4,9,15(28),16,23(27),24-octaene-12,14,14-trione] | 100 to 500 nM | 100 to 500 nM |
| CN1CCOc2cc(ccn2)-c2ccc3c(c2NC(=O)NS(=O)(=O)c2ccn(n2)C(C)(C)C1)CCC3 [Example 18, 19,19,21-trimethyl-24-oxa-14λ^6-thia-11,13,18,21,26,30-hexaazapentacyclo-[23.3.1.1^15,18.0^2,10.0^5,9]triaconta-1(28),2,4,9,15(30),16,25(29),26-octaene-12,14,14-trione] | 100 to 500 nM | 500 to 1000 nM |
| CN1CCCOc2cc(ccn2)-c2ccc3c(c2NC(=O)NS(=O)(=O)c2cc(n(C4CC4)n2)C1)CCC3 [Example 14, 17-cyclopropyl-20-methyl-24-oxa-14λ^6-thia-11,13,16,17,20, 26-hexaazapentacyclo-[23.3.1.1^15,18.0^2,10.0^5,9]triaconta-1(28),2,4,9,15,18(30),25(29),26-octaene-12,14,14-trione] | 100 to 500 nM | 1000 to 5000 nM |
| CN(C)Cc1cc2nn1CCCCCOc1cc(ccn1)-c1ccc3c(c1NC(=O)NS2(=O)=O)CCC3 [Example 17, 17-[(dimethylamino)-methyl]-24-oxa-14λ^6-thia-11,13,18,26,30-pentaazapentacyclo-[23.3.1.1^15,18.0^2,10.0^5,9]triaconta-1(28),2,4,9,15(30),16,25(29),26-octaene-12,14,14-trione] | ≤ 100 nM | 500 to 1000 nM |
| O=C1Nc2c(ccc3c2CCC3)-c2ccnc(c2)OCCCOCc2cc(nn2C2CC2)S(=O)(=O)N1 [Example 15, 17-cyclopropyl-20,24-dioxa-14λ^6-thia-11,13,16,17,26-pentaazapentacyclo-[23.3.1.1^15,18.0^2,10.0^5,9]triaconta-1(28),2,4,9,15,18(30),25(29),26-octaene-12,14,14-trione] | ≤ 100 nM | 100 to 500 nM |
| O=C1Nc2c(ccc3c2CCC3)-c2ccnc(c2)OCCn2ccc(n2)S(=O)(=O)N1 [Example 20, 21-oxa-14λ^6-thia-11,13,18,23,27-pentaazapentacyclo-[20.3.1.1^15,18.0^2,10.0^5,9]heptacosa-1(25),2,4,9,15(27),16,22(26),23-octaene-12,14,14-trione] | ≤ 100 nM | 100 to 500 nM |
| O=C1Nc2c(ccc3c2CCC3)-c2ccnc(c2)OCCCn2ccc(n2)S(=O)(=O)N1 [Example 7, 22-oxa-14λ^6-thia-11,13,18,24,28-pentaazapentacyclo-[21.3.1.1^15,18.0^2,10.0^5,9]octacosa-1(26),2,4,9,15(28),16,23(27),24-octaene-12,14,14-trione] | 500 to 1000 nM | 500 to 1000 nM |
| CN(C)Cc1cc2nn1CCCOc1cc(ccn1)-c1ccc3c(c1NC(=O)NS2(=O)=O)CCC3 [Example 22, 17-[(dimethylamino)-methyl]-22-oxa-14λ^6-thia-11,13,18,24,28-pentaazapentacyclo-[21.3.1.1^15,18.0^2,10.0^5,9]octacosa-1(26),2,4,9,15(28),16,23(27),24-octaene-12,14,14-trione] | 100 to 500 nM | 100 to 500 nM |
| CC1(C)COc2nccc(c2F)-c2ccc3c(c2NC(=O)NS(=O)(=O)c2ccn1n2)CCC3 [Example 32, 26-fluoro-19,19-dimethyl-21-oxa-14λ^6-thia-11,13,18,23,27-pentaaza-pentacyclo[20.3.1.1^15,18.0^2,10.0^5,9]-heptacosa-1(26),2,4,9,15(27),16,22,24-octaene-12,14,14-trione, sodium salt] | 100 to 500 nM | 100 to 500 nM |
| CC(C)c1cc(F)cc2c1NC(=O)NS(=O)(=O)c1nn(cc1F)CCOc1cc-2ccn1 [Example 44, 4,13-difluoro-6-(propan-2-yl)-18-oxa-11λ^6-thia-8,10,15,20,24-pentaazatetracyclo[17.3.1.1^12,15.0^2,7]-tetracosa-1(22),2(7),3,5,12(24),13,19(23),20-octaene-9,11,11-trione, sodium salt] | ≤ 100 nM | 100 to 500 nM |
| Cc1cc2cc(n1)OCC(C)(C)n1ccc(n1)S(=O)(=O)NC(=O)Nc1c-2ccc2c1CCC2 [Example 36, 19,19,24-trimethyl-21-oxa-14λ^6-thia-11,13,18,23,27-pentaazapentacyclo-[20.3.1.1^15,18.0^2,10.0^5,9]heptacosa-1(26),2,4,9,15(27),16,22,24-octaene-12,14,14-trione] | ≤ 100 nM | 500 to 1000 nM |
| O=C1Nc2c(ccc3c2CCC3)-c2ccnc(c2)OCC2(CCOCC2)n2ccc(n2)S(=O)(=O)N1 [Example 39, 21′-oxa-14′λ^6-thia-11′,13′,18′,23′,27′-pentaaza-spiro[oxane-4,19′-pentacyclo-[20.3.1.1^15,18.0^2,10.0^5,9]-heptacosan]-1′(25′),2′,4′,9′,15′(27′),16′,22′(26′),23′-octaene-12′,14′,14′-trione] | ≤ 100 nM | 100 to 500 nM |
| Cc1cc2c(c3c1-c1ccnc(c1)OCCn1ccc(n1)S(=O)(=O)NC(=O)N3)CCC2 [Example 28, 3-methyl-21-oxa-14λ^6-thia-11,13,18,23,27-pentaazapentacyclo-[20.3.1.1^15,18.0^2,10.0^5,9]heptacosa-1(25),2(10),3,5(9),15(27),16,22(26),23-octaene-12,14,14-trione, sodium salt] | ≤ 100 nM | 100 to 500 nM |
| O=C1Nc2c(ccc3c2CCC3)-c2ccnc(c2)OCCn2cc(F)c(n2)S(=O)(=O)N1 [Example 25, 16-fluoro-21-oxa-14λ^6-thia-11,13,18,23,27-pentaazapentacyclo-[20.3.1.1^15,18.0^2,10.0^5,9]heptacosa-1(25),2,4,9,15(27),16,22(26),23-octaene-12,14,14-trione] | ≤ 100 nM | ≤ 100 nM |
| Cc1cc2c(c3c1-c1ccnc(c1)OCC(C)(C)n1ccc(n1)S(=O)(=O)NC(=O)N3)CCC2 [Example 24, 3,19,19-trimethyl-21-oxa-14λ^6-thia-11,13,18,23,27-pentaazapentacyclo-[20.3.1.1^15,18.0^2,10.0^5,9]heptacosa-1(25),2(10),3,5(9),15(27),16,22(26),23-octaene-12,14,14-trione, Sodium Salt] | ≤ 100 nM | 100 to 500 nM |
| CC1(C)COc2cc(ccn2)-c2c(F)cc3c(c2NC(=O)NS(=O)(=O)c2nn1cc2F)CCC3 [Example 41, 3,16-difluoro-19,19-dimethyl-21-oxa-14λ^6-thia-11,13,18,23,27-pentaazapentacyclo-[20.3.1.1^15,18.0^2,10.0^5,9]heptacosa-1(25),2,4,9,15(27),16,22(26),23-octaene-12,14,14-trione, sodium salt] | ≤ 100 nM | 100 to 500 nM |
